Reference: patent publication US6841385B2, “Transcription factor E2F DNA-binding domain inhibitor peptides and their use” (Topotarget UK Limited, priority 1999, dated 2005)
Bridge positions count the residues as written; N and C are the ends. Square brackets hold non-standard residues; d marks the D form. Ends that are not written are not given here. I, II: the chains in the order shown. βAla = NCCC(=O)O

Legend:
[1] = system: HeLa cells; test: BrdU incorporation cell proliferation assay, HeLa cells; type: cell-based; settings: 24 hrs, dose-dependent
Protocol: (§1) HeLa cells were grown in Dulbecco's Modified Eagle's Medium (DMEM) supplemented with fetal calf serum (FCS) and HL60 cells in RPMI 1640 supplemented with 10% FCS. Cells were treated with peptides in culture medium and incubated overnight before harvesting.
The peptides were tested in further experiments for their effect on cell cycle progression and cell viability. For this purpose, the peptides were conjugated at their C-terminus to a cell penetrating HIV-Tat derived peptide (aa 48-60) (Fawell et al. (1994) Proc. Natl. Acad. Sci. USA 91, 664-668).
(§2) HeLa, 3T3, W138 cells were treated with varying concentration of MAP-4-SEQ ID NO:2-TAT and a control peptide MAP-4-SEQ ID NO:39-TAT wherein SEQ ID NO:39 is SEQ ID NO:2 but containing 2 alanine substitutions at positions 1 and 4, i.e. AVRAHF (SEQ ID NO:39) DNA replication was analysed by BrdU incorporation after 24 hours.
(§3) Four tumor cell lines U2OS (osteosarcoma), C33A (cervical carcinoma), HeLa (cervical carcinoma) and E2F4/ras (derived from primary rat embryo fibroblasts) were treated with the branched peptide MAP-4-SEQ ID NO:2-TAT or mutant control peptide MAP-4-SEQ ID NO:39-TAT for 24 hrs. Cell proliferation was measured using the BrDU proliferation assay from Boehringer Mannheim (Cat No. 1 647 229).

[2] = system: HL60 cells; test: Growth of HL60 cells treated with peptide; type: cell-based
Protocol: as §1, §2
(§4) Effects became visible after 5-24 hours defending on the concentration of the peptide.

[3] = system: HL60 cells; test: Apoptosis, staining of HL60 cells with Heochst 33342 propidium iodide; type: cell-based
Protocol: as §4

[4] = system: HL60 cells; test: Nuclease-laddering assay (DNA laddering) in HL60 cells; type: cell-based
Protocol: Treated cells were collected, washed with PBS, resuspended in lysis buffer (50 mM Tris pH 7.9, 100 mM EDTA, pH 8, 100 mM NaCl, 1% SDS) and 500 μg/ml proteinase K and incubated at 55° C. for 18 h. Cells were then incubated with […] for 1 hour at 37° C., genomic DNA was purified and examined by agarose gel electrophoresis.
as §4

[5] = system: CycA promoter; test: Transcription from the CycA promoter, HeLa cells transiently transfected with CycA-Luciferase construct; type: cell-based
Text: (§5) This finding is in agreement with the anti-repressor function of E2F in the CycA promoter, (Liu et al, Oncogene (1998), 16, 2957-2963).

[6] = system: SV-40 promoter; test: Transcription from the SV-40 promoter (control), HeLa cells; type: cell-based
Text: as §5

[7] = system: U2OS (osteosarcoma); test: BrDU proliferation assay, U2OS cells; type: cell-based; settings: 24 hrs, dose-dependent
Protocol: as §3

[8] = system: C33A (cervical carcinoma); test: BrDU proliferation assay, C33A cells; type: cell-based; settings: 24 hrs, dose-dependent
Protocol: as §3

[9] = system: E2F4/ras (derived from primary rat embryo fibroblasts); test: BrDU proliferation assay, E2F4/ras cells; type: cell-based; settings: 24 hrs, dose-dependent
Protocol: as §3

[10] = target: T1, recombinant E2F1 N1-His (64-301) with DP1 N2-GST (84-249) (human, UniProt Q01094 64-301; Q14186 84-249); test: band shift, recombinant E2F1 and DP1, displacement of 32P B-myb E2F-site probe
T1 construct: range 64-301;range 84-249; Both proteins were incubated together at 10 ug/ml in the band shift assay with a 32P-labelled B-myb E2F-site probe; also called recombinant E2F1 and DP1; not shown: His tag from vector pET28b; GST fusion partner
T1 sequence (Q01094 64-301, chain 1 of 2): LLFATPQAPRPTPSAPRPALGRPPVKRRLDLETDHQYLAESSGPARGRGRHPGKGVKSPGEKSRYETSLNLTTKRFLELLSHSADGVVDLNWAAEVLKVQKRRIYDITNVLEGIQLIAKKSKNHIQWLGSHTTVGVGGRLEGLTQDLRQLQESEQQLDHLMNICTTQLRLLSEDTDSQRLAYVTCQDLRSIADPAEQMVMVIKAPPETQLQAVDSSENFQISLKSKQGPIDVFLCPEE
T1 sequence (Q14186 84-249, chain 2 of 2): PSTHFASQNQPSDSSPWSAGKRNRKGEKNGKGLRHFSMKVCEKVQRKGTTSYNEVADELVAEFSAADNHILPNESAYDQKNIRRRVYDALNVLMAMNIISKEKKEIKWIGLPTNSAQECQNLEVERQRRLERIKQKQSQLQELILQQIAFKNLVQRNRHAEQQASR

[11] = target: T1, recombinant E2F1 N1-His (64-301) with …; test: deletion analysis; inhibition of E2F DNA binding (band shift)
Protocol: Probes were labelled by filling-in 5' overhanging ends of 4–7 bases. Samples were run on 4% non denaturing polyacrylamide gel in 0.5% TBE at 4° C. Gels were exposed to X-ray films. […] The samples were then incubated for 10 minutes at 30° C. and cooled on ice. ^32P-labelled probe was added, the reaction mixtures were incubated for another 10 minutes at 30° C. and then cooled on ice.

Q: With “I: WVRWHFGRKKRRQRRRPPQKK[βAla] / II: WVRWHFGRKKRRQRRRPPQK / III: WVRWHFGRKKRRQRRRPPQ / IV: WVRWHFGRKKRRQRRRPPQ (amide I:20-IV:C, I:21-II:C, II:20-III:C) [MAP-4-SEQ ID NO:2-TAT]” as the molecule, how does the inhibition of proliferation [1] read?
A: Its inhibition of proliferation is “inhibited proliferation”.

Q: And the “inhibition of cell proliferation / cell growth” value ([2]; HL60 cells, concentrations between 1-5 μM)?
A: The value was “Inhibition of cell proliferation”.

Q: What about the “time after which effects became visible” value ([2]; depending on the concentration of the peptide) of the same molecule?
A: Its value is 5 to 24 h.

Q: And the “hallmarks of apoptosis after staining” value [3]?
A: The value was “chromatin condensation and nuclear fragmentation”.

Q: What about the DNA laddering [4] of the same molecule?
A: The DNA laddering was “internucleosomal DNA cleavage”.

Q: And the “effect on transcription from CycA-Luciferase construct” value [5]?
A: The value was “Inhibition of transcription”.

Q: What about the “effect on the SV-40 promoter” value [6] of the same molecule?
A: The value was “No effect”.

Q: What about the inhibition of proliferation [7] of the same molecule?
A: Its inhibition of proliferation is “inhibited proliferation”.

Q: What about the inhibition of proliferation [8] of the same molecule?
A: Its inhibition of proliferation is “inhibited proliferation”.

Q: What about the inhibition of proliferation [9] of the same molecule?
A: Its inhibition of proliferation is “inhibited proliferation”.

B1: peptide SEQ ID NO:4 (IWLSGLSRGVWVSFP) (peptide)
peptide: IWLSGLSRGVWVSFP
notes: Synthetic peptide in the band shift assays
Q: Does B1 bind [10]?
A: Result: binds

B2: SEQ5-7 (3-13) (RILTFRSGSWY) (peptide)
peptide: RILTFRSGSWY
notes: also called core-region consisting of amino acids 3-13
Q: With B2 as the molecule, how does the “inhibitory activity relative to SEQ ID NO:5” value [11] read?
A: The value was ~50%.
